Values of other authors in patent US11439715B2, “Compositions and methods to detect GLUA1 in brain and to identify the presence of GLUA1-mediated post-traumatic stress disorder and other neurological disorders” (Neurovation Labs, Inc., priority 2017, dated 2022).
Entries after “also recorded” stand apart in the source; their conditions may differ. Like-named read-outs stand apart in the source and are kept apart here.

Columns and labels:
[1] = tested on: Stress-Enhanced Fear Learning (SEFL), a rodent model of PTSD
GluN1 = settings: stressed and unstressed rats, measured three weeks after the trauma
GluA1 = settings: stressed rats, metyrapone given before the trauma, measured three weeks after the trauma
GluA2 = settings: stressed and unstressed rats, measured three weeks after the trauma

SMILES: Br.C[N+](C)(C)CCCCCNCC12CC3CC(CC(C3)C1)C2.[Br-] [IEM-1460, N,N,H,-Trimethyl-5-[(tricyclo[3.3.1.13,7]dec-1-ylmethyl)amino]-1-pentanaminiumbromide hydrobromide]
- percent freezing in Context B on Day 3 (sensitized fear, SEFL) ([1]; intra-BLA infusion post-trauma, compared with stressed controls (ACSF or MSO), hydrobromide): significantly reduces freezing in Context B; also recorded: attenuate SEFL

SMILES: CC(C)(C(=O)c1cccnc1)c1cccnc1 [Metyrapone]
- GluN1 levels in the BLA (GluN1:GAPDH optical density ratio) (GluN1): Neither stress nor metyrapone had an effect on GluN1 levels
- GluA1 protein levels in the BLA (GluA1:GAPDH optical density ratio) (GluA1): prevented GluA1 increases
- GluA1 protein levels in the BLA (GluA1:GAPDH optical density ratio) (GluA1; listed as metyrapone): significantly higher in stressed rats than in unstressed rats and metyrapone-treated rats
- SEFL (stress-enhanced fear learning) ([1]; metyrapone given before the trauma): effectively preventing SEFL
- GluA2 levels in the BLA (GluA2:GAPDH optical density ratio) (GluA2): Neither stress nor metyrapone had an effect on GluA2 levels
